This passage reports IC50 results from ChEMBL document CHEMBL3351556, “Thee-component, one-pot synthesis of hexahydroazepino[3,4-b]indole and tetrahydro-1H-pyrido[3,4-b]indole derivatives and evaluation of their cytotoxicity” (Bioorg Med Chem Lett, 2014).

Holding throughout (format): functional, cell-based
One assay has as its system HeLa. In words: Antiproliferative activity against human HeLa cells after 48 hrs by MTT/quantitative colorimetric method.
The next assay deals with A549. The experiment in a line: Antiproliferative activity against human A549 cells after 48 hrs by MTT/quantitative colorimetric method. The settings on record: A549, 48 h.
For another assay, the system named is DU-145. The experiment in a line: Antiproliferative activity against human DU145 cells after 48 hrs by MTT/quantitative colorimetric method. The settings on record: DU-145, 48 h.
Another assay has as its system MCF7. The experiment in a line: Antiproliferative activity against human MCF7 cells after 48 hrs by MTT/quantitative colorimetric method. The settings on record: MCF7, 48 h.

SMILES strings stand for the structures.

For the molecule `Cn1c2c(c3ccccc31)CC(=O)N(c1ccc(F)cc1)C2C(=O)NC1CCCCC1` (configuration not stated), the 50% inhibitory concentration (IC50) (commonly the concentration that gives 50% inhibition) in the assay with HeLa was 11 µM; in the assay on A549, 62 µM; in the assay with DU-145, 47 µM; in the assay on MCF7, 50 µM.
Take `Cn1c2c(c3ccccc31)CC(=O)N(c1ccc(Br)cc1)C2C(=O)NC1CCCCC1` (configuration not stated): the IC50 in the assay on HeLa was 49 µM; with A549 it was over 100 µM; with DU-145, 45 µM; with MCF7 it was 52 µM.
On to `Cn1c2c(c3ccccc31)CC(=O)N(c1ccc(Cl)cc1)C2C(=O)NC1CCCCC1` (configuration not stated), for which the IC50 with HeLa is 55 µM; with A549 it was 59 µM; in the assay on DU-145 it was 42 µM; in the assay on MCF7, over 100 µM.
For `Cn1c2c(c3ccccc31)CC(=O)N(c1cccc(F)c1)C2C(=O)NC1CCCCC1` (configuration not stated), the concentration for half-maximal inhibition (IC50) with HeLa is 25 µM; in the assay with A549, 85 µM; in the assay on DU-145, over 100 µM; in the assay with MCF7, 95 µM.
Consider `Cc1ccc(C)c(N2C(=O)Cc3c(n(C)c4ccccc34)C2C(=O)NC2CCCCC2)c1` (configuration not stated), for which the IC50 in the assay with HeLa is over 100 µM; in the assay on A549, over 100 µM; in the assay with DU-145 it was over 100 µM; in the assay on MCF7 it was 95 µM.
Turning to `Cn1c2c(c3ccccc31)CC(=O)N(c1ccc(F)cc1)C2C(=O)NC(C)(C)C` (configuration not stated), the 50% inhibitory concentration (IC50) in the assay with HeLa was 26 µM; in the assay with A549 it was over 100 µM; in the assay on DU-145, 78 µM; in the assay on MCF7, 61 µM.
The like results for `Cn1c2c(c3ccccc31)CC(=O)N(c1ccc(Cl)cc1)C2C(=O)NC(C)(C)C` (configuration not stated) were, in that order, 83 µM, 63 µM, over 100 µM and 96 µM.
Turning to `Cn1c2c(c3ccccc31)CC(=O)N(c1ccc(F)c(Cl)c1)C2C(=O)NC(C)(C)C` (configuration not stated), the IC50 in the assay on HeLa was over 100 µM; with A549, 80 µM; in the assay with DU-145, 95 µM; with MCF7 it was over 100 µM.
On to `Cc1ccc(C)c(N2C(=O)Cc3c(n(C)c4ccccc34)C2C(=O)NC(C)(C)C)c1` (configuration not stated), for which the 50% inhibitory concentration (IC50) stood at 95 µM in the assay with HeLa, 49 µM in the assay with A549, 63 µM in the assay on DU-145 and 87 µM in the assay with MCF7.
Turning to `Cn1c2c(c3ccccc31)CCC(=O)N(c1ccc(F)cc1)C2C(=O)NC1CCCCC1` (configuration not stated), the IC50 in the assay with HeLa was found to be 48 µM; in the assay with A549, 59 µM; with DU-145 it was 90 µM; in the assay with MCF7 it was 50 µM.
Regarding `Cn1c2c(c3ccccc31)CCC(=O)N(c1ccc(Br)cc1)C2C(=O)NC1CCCCC1` (configuration not stated), the 50% inhibitory concentration (IC50) with HeLa is 63 µM; in the assay with A549, over 100 µM; with DU-145, 55 µM; in the assay on MCF7, 78 µM.
Take `Cn1c2c(c3ccccc31)CCC(=O)N(c1ccc(Cl)cc1)C2C(=O)NC1CCCCC1` (configuration not stated): the IC50 in the assay on HeLa was found to be 12 µM; in the assay with A549 it was 27 µM; with DU-145, 13 µM; in the assay with MCF7 it was 29 µM.
For the molecule `Cn1c2c(c3ccccc31)CCC(=O)N(c1ccc(F)c(Cl)c1)C2C(=O)NC1CCCCC1` (configuration not stated), the IC50 was over 100 µM with HeLa, over 100 µM in the assay on A549, 82 µM in the assay on DU-145 and 54 µM in the assay with MCF7.
As for `Cn1c2c(c3ccccc31)CCC(=O)N(c1cccc(F)c1)C2C(=O)NC1CCCCC1` (configuration not stated), the half-inhibitory concentration (IC50) was 44 µM in the assay on HeLa, over 100 µM in the assay with A549, 52 µM in the assay on DU-145 and 94 µM in the assay on MCF7.
Regarding `Cc1ccc(C)c(N2C(=O)CCc3c(n(C)c4ccccc34)C2C(=O)NC2CCCCC2)c1` (configuration not stated), the IC50 in the assay on HeLa, in the assay on A549, with DU-145 and in the assay with MCF7 was over 100 µM each time.
Turning to `Cn1c2c(c3ccccc31)CCC(=O)N(c1ccc(F)cc1)C2C(=O)NC(C)(C)C` (configuration not stated), the IC50 in the assay with HeLa is 46 µM; in the assay on A549, over 100 µM; in the assay with DU-145 it was 70 µM; in the assay with MCF7 it was 50 µM.
Consider `Cn1c2c(c3ccccc31)CCC(=O)N(c1ccc(Cl)cc1)C2C(=O)NC(C)(C)C` (configuration not stated), for which the 50% inhibitory concentration (IC50) in the assay on HeLa worked out at 13 µM; in the assay on A549, 18 µM; in the assay on DU-145, 21 µM; in the assay on MCF7, 18 µM.
`Cn1c2c(c3ccccc31)CCC(=O)N(c1ccc(F)c(Cl)c1)C2C(=O)NC(C)(C)C` (configuration not stated): the IC50 is 67 µM in the assay on HeLa, 35 µM with A549, 56 µM in the assay on DU-145 and over 100 µM in the assay on MCF7.
